Assay results as given in PubChem BioAssay (NCI).
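Exposure lasted 48 hours, with cells grown in 96-well plates and compounds tested at five concentrations. GI50 = concentration required for 50% inhibition of growth. At the TGI there is no net growth.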

Assays:
Experiment in all cases: growth of human tumour cells (NCI), 48 h; in the data active means GI50 below about 0.43 µM; inactive means the rest
786-0 renal = tested on: 786-0 renal
A498 renal = tested on: A498 renal
A549 NSCLC = tested on: A549 NSCLC
ACHN renal = tested on: ACHN renal
BT-549 breast = tested on: BT-549 breast
CAKI-1 renal = tested on: CAKI-1 renal
CCRF-CEM leukemia = tested on: CCRF-CEM leukemia
COLO 205 colon = tested on: COLO 205 colon
DU-145 prostate = tested on: DU-145 prostate
EKVX NSCLC = tested on: EKVX NSCLC
HCC-2998 colon = tested on: HCC-2998 colon
HCT-116 colon = tested on: HCT-116 colon
HCT-15 colon = tested on: HCT-15 colon
HL-60(TB) leukemia = tested on: HL-60(TB) leukemia
HOP-62 NSCLC = tested on: HOP-62 NSCLC
HOP-92 NSCLC = tested on: HOP-92 NSCLC
HS 578T breast = tested on: HS 578T breast
HT29 colon = tested on: HT29 colon
IGROV1 ovarian = tested on: IGROV1 ovarian
K-562 leukemia = tested on: K-562 leukemia
KM12 colon = tested on: KM12 colon
LOX IMVI melanoma = tested on: LOX IMVI melanoma
M14 melanoma = tested on: M14 melanoma
MALME-3M melanoma = tested on: MALME-3M melanoma
MCF7 breast = tested on: MCF7 breast
MDA-MB-231 breast = tested on: MDA-MB-231 breast
MDA-MB-435 = tested on: MDA-MB-435
MOLT-4 leukemia = tested on: MOLT-4 leukemia
NCI-H226 lung = tested on: NCI-H226 lung
NCI-H23 lung = tested on: NCI-H23 lung
NCI-H460 lung = tested on: NCI-H460 lung
NCI-H522 lung = tested on: NCI-H522 lung
NCI/ADR-RES ovarian = tested on: NCI/ADR-RES ovarian
OVCAR-3 ovarian = tested on: OVCAR-3 ovarian
OVCAR-4 ovarian = tested on: OVCAR-4 ovarian
OVCAR-5 ovarian = tested on: OVCAR-5 ovarian
OVCAR-8 ovarian = tested on: OVCAR-8 ovarian
PC-3 prostate = tested on: PC-3 prostate
RPMI-8226 leukemia = tested on: RPMI-8226 leukemia
SF-268 CNS = tested on: SF-268 CNS
SF-295 CNS = tested on: SF-295 CNS
SF-539 CNS = tested on: SF-539 CNS
SK-MEL-28 melanoma = tested on: SK-MEL-28 melanoma
SK-MEL-5 melanoma = tested on: SK-MEL-5 melanoma
SK-OV-3 ovarian = tested on: SK-OV-3 ovarian
SNB-19 CNS = tested on: SNB-19 CNS
SNB-75 CNS = tested on: SNB-75 CNS
SR leukemia = tested on: SR leukemia
SW-620 colon = tested on: SW-620 colon
T-47D breast = tested on: T-47D breast
TK-10 renal = tested on: TK-10 renal
U251 CNS = tested on: U251 CNS
UACC-257 melanoma = tested on: UACC-257 melanoma
UACC-62 melanoma = tested on: UACC-62 melanoma
UO-31 renal = tested on: UO-31 renal
RXF 393 renal = tested on: RXF 393 renal
SK-MEL-2 melanoma = tested on: SK-MEL-2 melanoma
SN12C renal = tested on: SN12C renal

COc1ccc2nc(NC(=O)CSc3nnc4n3S(=O)(=O)c3ccccc3N4c3ccccc3)sc2c1
55.1 µM: TGI (IGROV1 ovarian)
93.1 µM: TGI (786-0 renal)
inactive: GI50 (786-0 renal) 12.4 µM | GI50 (A498 renal) > 100 µM | GI50 (A549 NSCLC) > 100 µM | GI50 (ACHN renal) > 100 µM | GI50 (BT-549 breast) > 100 µM | GI50 (CAKI-1 renal) > 100 µM | GI50 (CCRF-CEM leukemia) > 100 µM | GI50 (COLO 205 colon) > 100 µM | GI50 (DU-145 prostate) > 100 µM | GI50 (EKVX NSCLC) > 100 µM | GI50 (HCC-2998 colon) > 100 µM | GI50 (HCT-116 colon) 94.1 µM | GI50 (HCT-15 colon) > 100 µM | GI50 (HL-60(TB) leukemia) 91.5 µM | GI50 (HOP-62 NSCLC) 2.14 µM | GI50 (HOP-92 NSCLC) 42.7 µM | GI50 (HS 578T breast) > 100 µM | GI50 (HT29 colon) > 100 µM | GI50 (IGROV1 ovarian) 5.47 µM | GI50 (K-562 leukemia) > 100 µM | GI50 (KM12 colon) > 100 µM | GI50 (LOX IMVI melanoma) > 100 µM | GI50 (M14 melanoma) > 100 µM | GI50 (MALME-3M melanoma) > 100 µM | GI50 (MCF7 breast) > 100 µM | GI50 (MDA-MB-231 breast) 23.7 µM | GI50 (MDA-MB-435) > 100 µM | GI50 (MOLT-4 leukemia) > 100 µM | GI50 (NCI-H226 lung) > 100 µM | GI50 (NCI-H23 lung) > 100 µM | GI50 (NCI-H460 lung) > 100 µM | GI50 (NCI-H522 lung) 30.4 µM | GI50 (NCI/ADR-RES ovarian) > 100 µM | GI50 (OVCAR-3 ovarian) > 100 µM | GI50 (OVCAR-4 ovarian) > 100 µM | GI50 (OVCAR-5 ovarian) > 100 µM | GI50 (OVCAR-8 ovarian) > 100 µM | GI50 (PC-3 prostate) > 100 µM | GI50 (RPMI-8226 leukemia) 1.45 µM | GI50 (SF-268 CNS) > 100 µM | GI50 (SF-295 CNS) > 100 µM | GI50 (SF-539 CNS) > 100 µM | GI50 (SK-MEL-28 melanoma) > 100 µM | GI50 (SK-MEL-5 melanoma) > 100 µM | GI50 (SK-OV-3 ovarian) > 100 µM | GI50 (SNB-19 CNS) > 100 µM | GI50 (SNB-75 CNS) 15.9 µM | GI50 (SR leukemia) 47.4 µM | GI50 (SW-620 colon) > 100 µM | GI50 (T-47D breast) > 100 µM | GI50 (TK-10 renal) > 100 µM | GI50 (U251 CNS) 52.4 µM | GI50 (UACC-257 melanoma) > 100 µM | GI50 (UACC-62 melanoma) 48.5 µM | GI50 (UO-31 renal) > 100 µM
> 100 µM: TGI (A498 renal) | TGI (A549 NSCLC) | TGI (ACHN renal) | TGI (BT-549 breast) | TGI (CAKI-1 renal) | TGI (CCRF-CEM leukemia) | TGI (COLO 205 colon) | TGI (DU-145 prostate) | TGI (EKVX NSCLC) | TGI (HCC-2998 colon) | TGI (HCT-116 colon) | TGI (HCT-15 colon) | TGI (HL-60(TB) leukemia) | TGI (HOP-62 NSCLC) | TGI (HOP-92 NSCLC) | TGI (HS 578T breast) | TGI (HT29 colon) | TGI (K-562 leukemia) | TGI (KM12 colon) | TGI (LOX IMVI melanoma) | TGI (M14 melanoma) | TGI (MALME-3M melanoma) | TGI (MCF7 breast) | TGI (MDA-MB-231 breast) | TGI (MDA-MB-435) | TGI (MOLT-4 leukemia) | TGI (NCI-H226 lung) | TGI (NCI-H23 lung) | TGI (NCI-H460 lung) | TGI (NCI-H522 lung) | TGI (NCI/ADR-RES ovarian) | TGI (OVCAR-3 ovarian) | TGI (OVCAR-4 ovarian) | TGI (OVCAR-5 ovarian) | TGI (OVCAR-8 ovarian) | TGI (PC-3 prostate) | TGI (RPMI-8226 leukemia) | TGI (SF-268 CNS) | TGI (SF-295 CNS) | TGI (SF-539 CNS) | TGI (SK-MEL-28 melanoma) | TGI (SK-MEL-5 melanoma) | TGI (SK-OV-3 ovarian) | TGI (SNB-19 CNS) | TGI (SNB-75 CNS) | TGI (SR leukemia) | TGI (SW-620 colon) | TGI (T-47D breast) | TGI (TK-10 renal) | TGI (U251 CNS) | TGI (UACC-257 melanoma) | TGI (UACC-62 melanoma) | TGI (UO-31 renal)

CC(=O)Oc1cccc2c1C(=O)CCCC2
4.78 µM: TGI (SNB-75 CNS)
> 100 µM: TGI (786-0 renal) | TGI (A498 renal) | TGI (A549 NSCLC) | TGI (ACHN renal) | TGI (BT-549 breast) | TGI (CAKI-1 renal) | TGI (CCRF-CEM leukemia) | TGI (COLO 205 colon) | TGI (DU-145 prostate) | TGI (EKVX NSCLC) | TGI (HCC-2998 colon) | TGI (HCT-116 colon) | TGI (HCT-15 colon) | TGI (HL-60(TB) leukemia) | TGI (HOP-62 NSCLC) | TGI (HS 578T breast) | TGI (HT29 colon) | TGI (IGROV1 ovarian) | TGI (K-562 leukemia) | TGI (KM12 colon) | TGI (LOX IMVI melanoma) | TGI (M14 melanoma) | TGI (MALME-3M melanoma) | TGI (MCF7 breast) | TGI (MDA-MB-231 breast) | TGI (MDA-MB-435) | TGI (MOLT-4 leukemia) | TGI (NCI-H226 lung) | TGI (NCI-H23 lung) | TGI (NCI-H460 lung) | TGI (NCI-H522 lung) | TGI (NCI/ADR-RES ovarian) | TGI (OVCAR-3 ovarian) | TGI (OVCAR-4 ovarian) | TGI (OVCAR-5 ovarian) | TGI (OVCAR-8 ovarian) | TGI (PC-3 prostate) | TGI (RXF 393 renal) | TGI (SF-268 CNS) | TGI (SF-295 CNS) | TGI (SF-539 CNS) | TGI (SK-MEL-2 melanoma) | TGI (SK-MEL-28 melanoma) | TGI (SK-MEL-5 melanoma) | TGI (SK-OV-3 ovarian) | TGI (SN12C renal) | TGI (SNB-19 CNS) | TGI (SR leukemia) | TGI (SW-620 colon) | TGI (T-47D breast) | TGI (TK-10 renal) | TGI (U251 CNS) | TGI (UACC-257 melanoma) | TGI (UACC-62 melanoma) | TGI (UO-31 renal)
